From US6615842B1, “Methods for removing nucleophilic toxins from tobacco smoke” (Cerami Consulting Corp., priority 1998, dated 2003)

assay: Removal of tar from tobacco smoke measured colorimetrically; conditions: 250 mg portions of compound as filter; smoke from one cigarette drawn through 3 ml water; read at 405 nm; compared with control cigarette
Procedure: The smoke from one cigarette was drawn through the filter material and then through 3 mls of distilled water using a water-pipe smoking device which was constructed from a 25 ml glass Erlenmeyer flask attached to a vacuum source with an air flow rate of approximately 35 ml/min. Three 100 microliter aliquots were removed from each flask, placed into ELISA plate wells and read in an ELISA plate reader at 405 nm. The percentage or tar removed is based on a comparison between the cigarette comprising the filter containing the test agent and an appropriate control cigarette.
The smoke from 1 of each type of filter cigarette was then drawn through 3 mls of distilled water using a water-pipe smoking device which was constructed from a small (25 ml) glass Erlenmeyer flask attached to a vacuum source with an air flow rate of approximately 35 ml/min. Three 100 microliter aliquots were removed from each flask, placed into ELISA plated wells and read in an ELISA plate reader at 405 nm.

Row | SMILES | % TAR REMOVAL [%]
1 | CCCCCCCCCC=CCC1CC(=O)OC1=O (stereo not drawn) [2-Dodecen-1-ylsuccinic anhydride] | 98.2
2 | CC1(C)CC(=O)CC(=O)C1 [(5,5-dimethyl-1,3-cyclohexanedione, 5,5-dimethyl-1,3-cyclohexanedione] | 26
3 | CC(=O)O[C@H]1C(=O)OC(=O)[C@@H]1OC(C)=O [(+)-Diacetyl-1-tartaric anhydride] | 32.1
4 | CC(C)(C)OC(=O)NCCCCCC(=O)ON1C(=O)CCC1=O [BOC-ε-aminocaproic acid-N-hydroxysuccinimide ester] | 74
5 | O=C1OC(=O)C2C3C=CC(C12)C1C(=O)OC(=O)C31 (stereo not drawn) [Bicyclo(2,2,2)oct-7-ene-2,3,5,6-tetracarboxylic dianhydride] | 98.2
6 | O=C1CN(CCN2CC(=O)OC(=O)C2)CC(=O)O1 [Ethylenediaminetetraacetic dianhydride] | 98.2
7 | O=C1c2ccccc2C(=O)C1(O)C1(O)C(=O)c2ccccc2C1=O [Hydrindantin] | 95
8 | C[C@H](NC(=O)OC(C)(C)C)C(=O)ON1C(=O)CCC1=O [N-α-t-BOC-L-alanine-N-hydroxysuccinimide ester] | 25
9 | CC(C)(C)OC(=O)N[C@@H](CCC(=O)ON1C(=O)CCC1=O)C(=O)OCc1ccccc1 [N-α-t-BOC-L-glutamic-α-benzyl ester-γ-N-hydroxysuccinimide ester] | 96.7
10 | O=C1c2ccccc2C(=O)C1(O)O [Ninhydrin] | 83
11 | O=Cc1ccccc1C=O [O-phthaldialdehyde] | 84
12 | O=CC(=O)c1ccccc1 [Phenylglyoxal] | 53
